Measured values from patent US20230278972A1, “SUBSTITUTED HALOALKYL SULFONANILIDE HERBICIDES” (FMC Corporation, priority 2020, published 2023).

What was measured:
[1] = tested on: ragweed (common ragweed, Ambrosia artemisiifolia); assay: Test A preemergence, ragweed; assay type: in vivo; details: Ambrosia artemisiifolia, pre-emergence, 240 h, Preemergence; for pest or weed control at 125 g/ha: 125 g ai/ha, visual injury on 0 to 100 scale (0 no effect, 100 complete control), approximately 10 days, read-out: Ragweed plant response rating; for pest or weed control at 500 g/ha: 500 g ai/ha, 0 to 100 scale (0 no effect, 100 complete control), read-out: Plant response rating, Ragweed
In short: (§1)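 Seeds are sown in loam mixed with sand and sprayed on the soil surface right after planting for the preemergence test. Postemergence pots are sprayed once seedlings reach 2 to 10 cm at the one- to two-leaf stage. The same surfactant-containing, non-phytotoxic solvent formulation serves both.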

[2] = tested on: Ryegrass, Italian (Italian ryegrass, Lolium multiflorum); assay: Test A preemergence, Ryegrass, Italian; assay type: in vivo; details: Lolium multiflorum, pre-emergence, 240 h, Preemergence; for pest or weed control at 125 g/ha: 125 g ai/ha, visual injury on 0 to 100 scale (0 no effect, 100 complete control), approximately 10 days, read-out: Ryegrass, Italian plant response rating; for pest or weed control at 500 g/ha: 500 g ai/ha, 0 to 100 scale (0 no effect, 100 complete control), read-out: Plant response rating, Ryegrass, Italian
In short: as §1

[3] = tested on: barnyardgrass (Echinochloa crus-galli); assay: Test A postemergence, barnyardgrass; assay type: in vivo; details: Echinochloa crus-galli, post-emergence, 240 h, Postemergence, 0 to 100 scale (0 no effect, 100 complete control); for pest or weed control at 125 g/ha: 125 g ai/ha, visual injury approx. 10 days, read-out: Plant response rating, Barnyardgrass; for pest or weed control at 500 g/ha: 500 g ai/ha, visual injury vs untreated controls after approx. 10 days, read-out: Barnyardgrass plant response rating
In short: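 Directed soil spray at planting gave the preemergence treatment, while foliar application to one- to two-leaf seedlings (2–10 cm) gave the postemergence one; pots held a loam and sand mixture and chemicals were carried in a non-phytotoxic solvent with surfactant.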

[4] = tested on: Ryegrass, Italian (Italian ryegrass, Lolium multiflorum); assay: Test A postemergence, Ryegrass, Italian; assay type: in vivo; details: Lolium multiflorum, post-emergence, 240 h, Postemergence, 0 to 100 scale (0 no effect, 100 complete control); for pest or weed control at 125 g/ha: 125 g ai/ha, visual injury approx. 10 days, read-out: Plant response rating, Ryegrass, Italian; for pest or weed control at 500 g/ha: 500 g ai/ha, visual injury vs untreated controls after approx. 10 days, read-out: Ryegrass, Italian plant response rating
In short: as §1

[5] = tested on: ducksalad (Heteranthera limosa); assay: Test B flooded paddy test, ducksalad; details: 336 h, read-out: Plant response rating, Ducksalad

Cc1cc(C)c(N(COC(=O)C(C)(C)C)S(=O)(=O)C(F)(F)F)cc1C1=NO[C@@H]2CCC[C@H]12 [Compound 100, [[2,4-Dimethyl-5-[(3aR,6aR)-3a,5,6,6a-tetrahydro-4H-cyclopent[d]isoxazol-3-yl]phenyl][(trifluoromethyl)sulfonyl]amino]methyl 2,2-dimethylpropanoate]
pest or weed control at 125 g/ha [1]: 20%
pest or weed control at 500 g/ha [1]: 80%
pest or weed control at 125 g/ha [2]: 40%
pest or weed control at 500 g/ha [2]: 70%
pest or weed control at 125 g/ha [3]: 80%
pest or weed control at 500 g/ha [3]: 90%
pest or weed control at 125 g/ha [4]: 20%
pest or weed control at 500 g/ha [4]: 40%
pest or weed control at 250 g/ha [5]: 70%

Cc1cc(C)c(C2=NOC3COCCC23)cc1NS(=O)(=O)C(F)(F)F (stereo not drawn) [Compound 121, N-[2,4-Dimethyl-5-(3a,4,7,7a-tetrahydro-5H-pyrano[4,3-d]isoxazol-3-yl)phenyl]-1,1,1-trifluoromethanesulfonamide]
pest or weed control at 125 g/ha [1]: 80%
pest or weed control at 500 g/ha [1]: 100%
pest or weed control at 125 g/ha [2]: 100%
pest or weed control at 500 g/ha [2]: 100%
pest or weed control at 125 g/ha [3]: 90%
pest or weed control at 500 g/ha [3]: 90%
pest or weed control at 125 g/ha [4]: 90%
pest or weed control at 500 g/ha [4]: 80%
pest or weed control at 250 g/ha [5]: 75%
